Assay [1] concerns TNF-α production in human PBMCs. In words: Induction of TNF-α in human PBMCs (ELISA). It is filed as cell-based. The settings on record: PBMC, 24 h, read-out: PBMC assay TNFa EC50. As to the method: In this example, the induction activity of the compounds of the present application on human PBMCs for TNF-α and IFN-α production was assessed in human PBMCs (human peripheral blood mononuclear cells). The human PBMCs were purchased from Shanghai Saily Biotechnology Co., Ltd. (Cat. No. XFB—HP100B). PBMC cells were treated with the compounds. The compounds of the present application are diluted in DMSO, for example, to about 15 mM. The reference compound was added to the plates in sequence after diluted to 5 mg/mL. The compounds were serially 3- or 4-fold diluted to 8 concentrations and added to plates in duplicate (Table 2-1 for serial 3-fold dilutions and Table 2-2 for serial 4-fold dilutions). For the negative control wells, DMSO was added at 0.4 μL/well, and a 5 mg/mL reference compound solution was added to the positive control wells at 0.4 μL/well. The final concentration of DMSO was 0.2%. Frozen human PBMCs in cryopreservation tubes were quickly thawed in a 37° C. water bath and transferred into 50-mL centrifuge tubes. Prewarmed RPMI1640 medium was gradually added and the mixture was well mixed and centrifuged for 15 min before the supernatant was discarded. The cells were resuspended in a culture medium and counted. The cell suspension was adjusted to 2.5×10^6 cells/mL with the culture medium. Diluted cells were added at 200 μL/500,000 cells/well in 96-well plates containing the compounds. The cell plates were incubated at 37° C./5% CO2 for 24 h.
The plate was then washed thrice. […] Termination of reaction: The reaction was terminated by quickly adding the stop solution at 100 μL/well. Plate reading: The reading at wavelength 450 nm was detected by an M2e instrument within 10 min after the termination.
Compound activity data analysis: The OD450 values were converted to TNF-α and IFN-α contents by GraphPad Prism software analysis and fitted to give dose-response curves of the compounds. The EC50 values for the compounds were calculated, where the Emax values are the maximal values for TNF-α and IFN-α.
(In an ELISA, binding on a coated surface is turned into a signal by an enzyme label.)

Assay [2] deals with T1, hTLR8 (human Toll-like receptor 8) (Homo sapiens, UniProt Q9NR97).
T1 construct: host or cells: HEK-Blue hTLR8 (HEK293-derived reporter cells)
T1 sequence (Q9NR97 27-1041): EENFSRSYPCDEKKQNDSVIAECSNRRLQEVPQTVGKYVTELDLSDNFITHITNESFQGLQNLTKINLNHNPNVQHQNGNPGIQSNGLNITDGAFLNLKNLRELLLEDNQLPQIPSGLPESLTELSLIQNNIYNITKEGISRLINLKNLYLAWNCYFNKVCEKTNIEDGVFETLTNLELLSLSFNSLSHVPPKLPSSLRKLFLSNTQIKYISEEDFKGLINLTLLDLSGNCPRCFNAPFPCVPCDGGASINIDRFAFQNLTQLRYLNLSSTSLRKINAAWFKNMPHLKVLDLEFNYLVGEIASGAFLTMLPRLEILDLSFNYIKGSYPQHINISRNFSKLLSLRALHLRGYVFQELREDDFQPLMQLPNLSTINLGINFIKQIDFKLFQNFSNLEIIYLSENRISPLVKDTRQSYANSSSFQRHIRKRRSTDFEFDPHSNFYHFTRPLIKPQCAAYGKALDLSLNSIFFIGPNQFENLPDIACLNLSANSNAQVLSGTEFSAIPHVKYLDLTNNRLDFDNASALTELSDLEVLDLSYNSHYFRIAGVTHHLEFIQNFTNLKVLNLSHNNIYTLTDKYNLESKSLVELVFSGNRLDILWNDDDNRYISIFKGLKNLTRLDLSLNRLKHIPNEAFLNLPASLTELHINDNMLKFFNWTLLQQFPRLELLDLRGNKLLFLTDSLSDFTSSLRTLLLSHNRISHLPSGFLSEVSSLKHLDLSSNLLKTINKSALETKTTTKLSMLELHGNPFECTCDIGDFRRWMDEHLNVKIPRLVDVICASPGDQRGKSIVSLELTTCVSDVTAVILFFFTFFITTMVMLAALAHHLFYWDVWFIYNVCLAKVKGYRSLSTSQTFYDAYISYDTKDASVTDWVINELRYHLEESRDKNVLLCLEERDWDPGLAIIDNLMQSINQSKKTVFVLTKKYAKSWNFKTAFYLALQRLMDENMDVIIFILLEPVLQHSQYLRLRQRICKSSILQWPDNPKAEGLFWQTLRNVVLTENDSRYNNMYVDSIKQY
In words: HEK-Blue hTLR8 reporter assay (QUANTI-Blue, OD650). It is filed as cell-based. The settings on record: HEK-Blue hTLR8 cells, 24 h, read-out: Reporter assay TLR8 EC50. For orientation: Reporter assays use an easily measured gene product as a stand-in for the process of interest.

Where [3] appears, read: serial 4-fold dilutions, class symbols.

Read-outs that look alike come from different tables or passages of the source.

By EC50 is commonly meant the concentration needed to bring the measured effect to its halfway point. As to `CCCN(OCc1ccc(N)cc1)C(=O)C1=Cc2ccc(-c3cncc(CO)c3)cc2N=C(N)C1` [Compound 15], the EC50 in assay [1] (serial 3-fold dilutions) was 3 nM; in assay [2], less than 1.5 nM.

Turning to `CCCN(OCc1ccc(N)cc1)C(=O)C1=Cc2ccc(C(=O)Nc3cncc(OC)c3)cc2N=C(N)C1` [Compound 85], the EC50 in assay [1] (setting [3]) and in assay [2] (class symbols) was no more than 10 nM in each case.

For the molecule `CCCN(OCc1ccc(N)cc1)C(=O)C1=Cc2ccc(-c3cncc(S(=O)(=O)N4CC[C@H](O)C4)c3)cc2N=C(N)C1` [Compound 72], the EC50 in assay [1] (setting [3]) and in assay [2] (class symbols) was no more than 10 nM throughout.

On to `CCCN(OCc1ccc(N)cc1)C(=O)C1=Cc2ccc(-c3cccc(S(=O)(=O)N4CCNCC4)c3)cc2N=C(N)C1` [Compound 67], for which the EC50 in assay [1] (setting [3]) and in assay [2] (class symbols) was no more than 10 nM in each case.

Take `CCCN(OCc1ccc(N)cc1)C(=O)C1=Cc2ccc(C(=O)Nc3ncco3)cc2N=C(N)C1` [Compound 87]: the EC50 in assay [1] (setting [3]) and in assay [2] (class symbols) was no more than 10 nM throughout.
